Experimental data reported in ChEMBL document CHEMBL1145550, “Halichonadin E, a dimeric sesquiterpenoid from the sponge Halichondria sp” (J Nat Prod, 2008).
In brackets after ≈: the same amount, converted by molar mass.

Tests used:
L1210 = assay: Cytotoxicity against mouse L1210 cells; format: functional, cell-based
KB = assay: Cytotoxicity against human KB cells; format: functional, cell-based

Question: Which IC50 (L1210) does the source give for `C=C1CCC[C@]2(C)CC[C@@H](C(C)C)[C@H](NC(=O)N[C@]3(C)CC[C@@H]4[C@H]([C@@H]5[C@H](C)CC[C@H]53)C4(C)C)[C@@H]12` [HALICHONADIN E] here?
Answer: The IC50 was 3 µg/mL (≈ 6.4 µM).

Question: What about the IC50 (KB) of the same compound?
Answer: The IC50 was 2.6 µg/mL (≈ 5.55 µM).
